Test results taken from paper PMC7353089, “The Hepatotoxicity of Alantolactone and Germacrone: Their Influence on Cholesterol and Lipid Metabolism in Differentiated HepaRG Cells” (Nutrients, 2020).

How the values were obtained:
HMGCS mRNA = experiment: RT-qPCR mRNA expression in dHepaRG cells; assay type: cell-based, human
Experimental: (§2) Three concentrations were selected for each compound (non-toxic, non-toxic/slightly toxic and toxic). The cholesterol level of the dHepaRG cells was measured after a multiple exposure of the highest non-toxic concentrations of tested compounds. […] The expression changes of genes and proteins related to cholesterol metabolism were measured in both single and multiple exposure experiments.
All treatments were performed in triplicates and every experiment was performed three times. The cells were washed twice with ice cold phosphate-buffered saline (PBS), scrapped and stored at −80 °C until use. Total RNA from cells was isolated using TriReagent according to the manufacturer’s instructions (Biotech, Prague, Czech Republic). The purified RNA was dissolved in 40 µL of diethyl pyrocarbonate (DEPC)-treated water (0.01% DEPC in HPLC water, autoclaved) and stored at −80 °C. The measurement of absorbance at 260 and 280 nm using the NanoDrop ND-1000 UV–VIS Spectrophotometer (Thermo Fisher Scientific, Pardubice, Czech Republic) was used to determine RNA yields and purity. Subsequently, the RNA (4 µg) was treated with 2 U of DNase I (New England Biolabs, Ipswich, MA, USA) in a final volume of 30 µL for 25 min at 37 °C, 1.5 µL of 0.1 M ethylenediaminetetraacetic acid was added and the DNAse was inactivated by heat (5 min at 75 °C). The solution was diluted to a concentration of 0.1 µg/µL. The DNAse treated RNA was stored at −80 °C until further analyses. The first strand cDNA was synthesized from 800 ng of total RNA and 1 µL of 50 µM random hexamers (Generi Biotech, Hradec Kralove, Czech Republic) using ProtoScript II reverse transcriptase (New England Biolabs, Ipswich, MA, USA). After the initial heat denaturation of total RNA (65 °C for 5 min), 4 µL of 5× ProtoScript II RT Reaction Buffer, 2 µL of 10× dithiothreitol (DTT), 2 µL of deoxynucleotide (dNTP) Mix 5 mM, 3.5 µL of H2O, and 0.5 µL of ProtoScript II 200 U/µL were added and mixed by pipetting. The reactions (20 µL) were incubated for 10 min at 25 °C, for 50 min at 42 °C, and for 5 min at 80 °C. The obtained cDNAs were diluted 1:6 by DEPC water. The qPCR analyses were carried out using QuantStudio 6 Flex (Applied Biosystems, Foster City, CA, USA) with SYBR green I (Xceed qPCR SG Mix, Institute of Applied Biotechnologies, Prague, Czech Republic) detection according to the manufacturer’s protocol. […] Fluorescence data were recorded at the end of each amplification step. Relative expression levels of the target genes were calculated as fold changes in triplicates for each group using the 2^−ΔΔCt method [28] by normalization to the geometric mean of the Ct values of Sdha and Ywhaz, which were used as reference genes.

FASN mRNA = experiment: RT-qPCR mRNA expression in dHepaRG cells; assay type: cell-based, human; conditions: single exposure, 6, 12 and 24 h
Experimental: as §2
All treatments were performed in triplicates and every experiment was performed three times. The cells were washed twice with ice cold phosphate-buffered saline (PBS), scrapped and stored at −80 °C until use. Total RNA from cells was isolated using TriReagent according to the manufacturer’s instructions (Biotech, Prague, Czech Republic). The purified RNA was dissolved in 40 µL of diethyl pyrocarbonate (DEPC)-treated water (0.01% DEPC in HPLC water, autoclaved) and stored at −80 °C. The measurement of absorbance at 260 and 280 nm using the NanoDrop ND-1000 UV–VIS Spectrophotometer (Thermo Fisher Scientific, Pardubice, Czech Republic) was used to determine RNA yields and purity. […] Fluorescence data were recorded at the end of each amplification step. Relative expression levels of the target genes were calculated as fold changes in triplicates for each group using the 2^−ΔΔCt method [28] by normalization to the geometric mean of the Ct values of Sdha and Ywhaz, which were used as reference genes.

PPARα mRNA = experiment: RT-qPCR mRNA expression in dHepaRG cells; assay type: cell-based, human
Experimental: All treatments were performed in triplicates and every experiment was performed three times. The cells were washed twice with ice cold phosphate-buffered saline (PBS), scrapped and stored at −80 °C until use. Total RNA from cells was isolated using TriReagent according to the manufacturer’s instructions (Biotech, Prague, Czech Republic). The purified RNA was dissolved in 40 µL of diethyl pyrocarbonate (DEPC)-treated water (0.01% DEPC in HPLC water, autoclaved) and stored at −80 °C. The measurement of absorbance at 260 and 280 nm using the NanoDrop ND-1000 UV–VIS Spectrophotometer (Thermo Fisher Scientific, Pardubice, Czech Republic) was used to determine RNA yields and purity. Subsequently, the RNA (4 µg) was treated with 2 U of DNase I (New England Biolabs, Ipswich, MA, USA) in a final volume of 30 µL for 25 min at 37 °C, 1.5 µL of 0.1 M ethylenediaminetetraacetic acid was added and the DNAse was inactivated by heat (5 min at 75 °C). […] Fluorescence data were recorded at the end of each amplification step. Relative expression levels of the target genes were calculated as fold changes in triplicates for each group using the 2^−ΔΔCt method [28] by normalization to the geometric mean of the Ct values of Sdha and Ywhaz, which were used as reference genes.

[1] = test system: proliferative liver (HepG2, HuH-7, LO2), breast (MCF7, MDA-MB-231), and glioblastoma cancer cell lines; conditions: after 12 to 24 h; read-out: IC50 values in proliferative cancer cell lines (approximate); cited from earlier work
dHepaRG cells = experiment: Cholesterol level (Amplex Red Cholesterol Assay kit); assay type: cell-based, human; conditions: multiple exposure: four applications every 24 h, cells collected 12 h after the last; 30 μM ATL, 100 μM GER
Experimental: The cholesterol content in the dHepaRG cells was tested using the Amplex Red Cholesterol Assay kit (Invitrogen) according to the manufacturer’s instructions and as per An et al.. The cells were collected 12 h after the last exposure of the tested compounds in a 4-day exposure with a medium change every 24 h. The cells were rinsed three times in PBS to eliminate residual growth medium. Whole cell extracts were prepared by 0.5 mL of RIPA lysis buffer (0.5% sodium deoxycholate, 0.1% SDS, 1% NP-40, 150 mM NaCl, 1 mM DTT, 50 mM Tris–HCl (pH = 7.4) and phenylmethanesulfonyl fluoride. Fluorescence was measured using a microplate reader (Tecan Infinite M200) at 530 nm excitation and 590 nm emission wavelengths. The total cholesterol (TC) content was determined by measuring the cholesterol concentration following digestion with cholesterol esterase (CE). To measure the free cholesterol (FC), CE was omitted from the assay. Three independent experiments were performed. The values obtained from a cholesterol standard curve were normalized to protein content, measured by a BCA assay.

MDA-MB-231 = conditions: MDA-MB-231, 24 h; read-out: Previously Reported IC50 Values (24 h); cited from earlier work
CYP3A4 mRNA = experiment: RT-qPCR mRNA expression in dHepaRG cells; conditions: single exposure, also at other than toxic concentrations
Experimental: The mRNA and protein expression changes were measured after a single administration of ALA and GER. Three concentrations were selected for each compound (non-toxic, non-toxic/slightly toxic and toxic). The cholesterol level of the dHepaRG cells was measured after a multiple exposure of the highest non-toxic concentrations of tested compounds. ATL (30 µM) and GER (100 µM) were administered four times every 24 h. The expression changes of genes and proteins related to cholesterol metabolism were measured in both single and multiple exposure experiments.
All treatments were performed in triplicates and every experiment was performed three times. The cells were washed twice with ice cold phosphate-buffered saline (PBS), scrapped and stored at −80 °C until use. […] The measurement of absorbance at 260 and 280 nm using the NanoDrop ND-1000 UV–VIS Spectrophotometer (Thermo Fisher Scientific, Pardubice, Czech Republic) was used to determine RNA yields and purity. […] Fluorescence data were recorded at the end of each amplification step. Relative expression levels of the target genes were calculated as fold changes in triplicates for each group using the 2^−ΔΔCt method by normalization to the geometric mean of the Ct values of Sdha and Ywhaz, which were used as reference genes.

HMGCR = experiment: Western blot protein level in dHepaRG cells; assay type: cell-based, human
Experimental: (§1) All the treatments were performed in triplicates. Protein concentration was measured using the bicinchoninic acid (BCA) protein assay (Sigma Aldrich, Prague, Czech Republic) according to the manufacturer’s instructions. The proteins were loaded onto a 10% sodium dodecyl sulfate (SDS; w/v)–polyacrylamide gel (with 4% stacking gel) and separated by SDS-PAGE electrophoresis. The proteins were transferred onto a nitrocellulose membrane using wet blot (100 V, 90 min). The membrane blocking was performed in a 5% non-fat dry milk/TRIS-buffered saline-Tween-20 (TBS-T) solution at room temperature for 2 h. Incubation with primary antibodies was accomplished overnight at 10 °C. β-actin was used as housekeeping protein (the list of primary antibodies in Table S2). Afterwards, the membrane was washed with 0.05% TBS-T solution for 6 × 5 min, incubated with respective secondary antibodies conjugated with horseradish peroxidase (bovine anti-rabbit (sc2370, Santa Cruz Biotechnology, Santa Cruz, CA, USA) at room temperature for 1.5 h, and rinsed with TBS-T solution for 6 × 5 min. Visualization of protein bands was carried out using a chemiluminescence kit (GE Healthcare, Buckinghamshire, UK).

STAT3 = experiment: Western blot protein level in dHepaRG cells; assay type: cell-based, human; conditions: highest tested concentration (equal to IC50)
Experimental: as §1

[2] = multiple exposure: four applications every 24 h, analyzed 12 h after the last, 30 μM ATL, 100 μM GER, 20 μM LOV

C=C1C(=O)O[C@@H]2C[C@@]3(C)CCC[C@H](C)C3=C[C@H]12 [ATL, alantolactone]
HMGCS mRNA level (HMGCS mRNA; [2]): induced | HMGCS mRNA level (HMGCS mRNA; single exposure, the highest concentration, 6-h exposure): induction | HMGCS mRNA level (HMGCS mRNA; single exposure, the highest concentration, 12- and 24-h exposure): decreased level | FASN mRNA level (FASN mRNA): significantly decreased | PPARα mRNA expression (PPARα mRNA; single exposure, toxic concentration after 24 h): inhibited | IC50 [1]: 10 to 30 µM | level of free cholesterol and esterified cholesterol (dHepaRG cells): no effect was observed | IC50 (MDA-MB-231): > 15 µM | CYP3A4 mRNA expression (CYP3A4 mRNA): induced | HMGCR protein amount (HMGCR; single exposure, after 12 and 24 h): decrease | HMGCR protein level (HMGCR; single exposure, the higher concentrations after 12 and 24-h exposure): decrease | total STAT3 protein level (STAT3): decrease

CC(C)=C1C/C=C(\C)CC/C=C(\C)CC1=O [GER, germacrone]
FASN mRNA level (FASN mRNA): significantly decreased | PPARα mRNA expression (PPARα mRNA; single exposure, 6, 12 and 24 h): no effect | IC50 [1]: 150 to 250 µM | level of free cholesterol and esterified cholesterol (dHepaRG cells): no effect was observed | IC50 (MDA-MB-231): 244 µM | CYP3A4 mRNA expression (CYP3A4 mRNA): induced | HMGCR protein level (HMGCR; [2]): slight decrease | HMGCR protein amount (HMGCR; single exposure, only after 12-h exposure): decrease | HMGCR protein level (HMGCR; single exposure, the highest concentration after 12-h exposure): decrease | total STAT3 protein level (STAT3): decrease
